Test results published in patent publication US20240299412A1, “DRUG FORMULATIONS OF 4-(3,3-DIFLUORO-2,2-DIMETHYL-PROPANOYL) -3,5-DIHYDRO-2H-PYRIDO[3,4-f][1,4]OXAZEPINE-9-CARBONITRILE” (Genzyme Corporation, priority 2023, published 2024).
Values after ≈ are worked out from the molar mass of the structure shown.

Key:
Format in all cases: physicochemical
[1] = Physical and chemical stability of Form A (solid storage)
Experimental: To evaluate the physical and chemical stability, Compound (1) Form A was stored in 3 conditions (40° C./75% RH; 25° C./60% RH; and 60° C.) for one and four weeks.

[2] = Dynamic vapor sorption (DVS)
Experimental: DVS. DVS was measured via a SMS (Surface Measurement Systems) DVS Intrinsic. The relative humidity at 25° C. were calibrated against deliquescence point of LiCl, Mg(NO3)2 and KCl.
(onset temperature). Considering the low TGA weight loss and single sharp DSC endotherm, Form A was postulated to be an anhydrate. […] However Form A has been prepared with much lower volatile content (0.1% or lower).

[3] = Kinetic solubility in bio-relevant media and H2O; details: for Final Form: residual solid; for Final Form / solubility at 1 h / solubility at 4 h / solubility at 24 h: 37° C.; for solubility at 1 h / solubility at 4 h / solubility at 24 h: thermodynamic from solid, Turbid
Experimental: Solids were suspended in FaSSIF, FeSSIF, SGF and H2O with target conc. of ˜10 mg/mL. The suspensions were agitated on a rolling incubator at 25 rpm (in the incubator set at 37° C.) for 1, 4 and 24 hrs. At each time point, 1 mL of the suspension was pipetted out for centrifugation at 15000 rpm (3 min) and filtration through 0.45 μm membrane to obtain supernatant for HPLC solubility and pH tests, the residual solids were analyzed by XRPD.

[4] = Solution stability in pH buffers; details: 37° C.; for Purity vs. Initial (%): ~0.5 mg/mL, Clear
Experimental: Solution stability study was performed in pH 2.0/4.0/6.0/7.0 (24 hrs) and pH 8.0 (24 hrs and 96 hrs) buffers. Solids were dissolved with pH buffers with target conc. of ˜0.5 mg/mL to form clear solutions and stored at 37° C. for 24 hrs or 96 hrs.

[5] = 24-Hrs solubility in pH buffers; details: for solubility at 24 h: aqueous buffer, thermodynamic from solid, Turbid; for Final Form: residual solid; for solubility at 24 h / Final Form: 24 hrs
[6] = 40° C./75% RH, 25° C./60% RH, 60° C., one and four weeks
[7] = pH 7.0 (50 mM Phosphate), 24 hrs
[8] = pH 8.0 (50 mM Phosphate), 24 hrs
[9] = pH 8.0 (50 mM Phosphate), 96 hrs

API (RRT 1.00) % Area ([1]; 1 week, 25° C./60% RH): 99.92 % Area
Description ([1]; 1 week, 25° C./60% RH): White powder
Final Form ([1]; 1 week, 25° C./60% RH): Form A
Imp.1 (RRT 0.68) % Area ([1]; 1 week, 25° C./60% RH): 0.08 % Area
Purity VS. initial (%) ([1]; 1 week, 25° C./60% RH): 100.0%
API (RRT 1.00) % Area ([1]; 1 week, 40° C./75% RH): 99.89 % Area
Description ([1]; 1 week, 40° C./75% RH): White powder
Final Form ([1]; 1 week, 40° C./75% RH): Form A
Imp.1 (RRT 0.68) % Area ([1]; 1 week, 40° C./75% RH): 0.11 % Area
Purity VS. initial (%) ([1]; 1 week, 40° C./75% RH): 100.0%
API (RRT 1.00) % Area ([1]; 1 week, 60° C.): 99.90 % Area
Description ([1]; 1 week, 60° C.): White powder
Final Form ([1]; 1 week, 60° C.): Form A
Imp.1 (RRT 0.68) % Area ([1]; 1 week, 60° C.): 0.10 % Area
Purity VS. initial (%) ([1]; 1 week, 60° C.): 100.0%
API (RRT 1.00) % Area ([1]; 4 weeks, 25° C./60% RH): 99.90 % Area
Description ([1]; 4 weeks, 25° C./60% RH): White powder
Final Form ([1]; 4 weeks, 25° C./60% RH): Form A
Imp.1 (RRT 0.68) % Area ([1]; 4 weeks, 25° C./60% RH): 0.10 % Area
Purity VS. initial (%) ([1]; 4 weeks, 25° C./60% RH): 100.0%
API (RRT 1.00) % Area ([1]; 4 weeks, 40° C./75% RH): 99.90 % Area
Description ([1]; 4 weeks, 40° C./75% RH): White powder
Final Form ([1]; 4 weeks, 40° C./75% RH): Form A
Imp.1 (RRT 0.68) % Area ([1]; 4 weeks, 40° C./75% RH): 0.10 % Area
Purity VS. initial (%) ([1]; 4 weeks, 40° C./75% RH): 100.0%
API (RRT 1.00) % Area ([1]; 4 weeks, 60° C.): 99.90 % Area
Description ([1]; 4 weeks, 60° C.): White powder
Final Form ([1]; 4 weeks, 60° C.): Form A
Imp.1 (RRT 0.68) % Area ([1]; 4 weeks, 60° C.): 0.10 % Area
Purity VS. initial (%) ([1]; 4 weeks, 60° C.): 100.0%
HPLC purity change on storage [1, 6]: no obvious HPLC purity change
form change on storage (XRPD) [1, 6]: no form change
API (RRT 1.00) % Area ([1]; Initial): 99.89 % Area
Imp.1 (RRT 0.68) % Area ([1]; Initial): 0.11 % Area
water uptake (DVS) ([2]; 25 C.°/80% RH): 0.024%
form change after DVS test (XRPD) ([2]; after DVS test): no form change
form change after kinetic solubility test ([3]; bio-relevant media or H2O): No form change
Final Form ([3]; FaSSIF (pH 6.5), 1 hr): Form A
Final Form ([3]; FaSSIF (pH 6.5), 4 hr): Form A
Final Form ([3]; FaSSIF (pH 6.5), 24 hr): Form A
Final Form ([3]; FeSSIF (pH 5.0), 1 hr): Form A
Final Form ([3]; FeSSIF (pH 5.0), 4 hr): Form A
Final Form ([3]; FeSSIF (pH 5.0), 24 hr): Form A
Final Form ([3]; H2O (pH 6.5), 1 hr): Form A
Final Form ([3]; H2O (pH 6.5), 4 hr): Form A
Final Form ([3]; H2O (pH 6.5), 24 hr): Form A
Final Form ([3]; SGF (pH 1.8), 1 hr): Form A
Final Form ([3]; SGF (pH 1.8), 4 hr): Form A
Final Form ([3]; SGF (pH 1.8), 24 hr): Form A
solubility at 1 h ([3]; simulated gastric fluid, SGF (pH 1.8), 1 hr, final pH 1.8): 2300 µg/mL (≈ 7.79 mM)
solubility at 4 h ([3]; simulated gastric fluid, SGF (pH 1.8), 4 hr, final pH 2.3): 2400 µg/mL (≈ 8.13 mM)
solubility at 24 h ([3]; simulated gastric fluid, SGF (pH 1.8), 24 hr, final pH 2.2): 2500 µg/mL (≈ 8.47 mM)
solubility at 1 h ([3]; FaSSIF (pH 6.5), 1 hr, final pH 6.4): 1100 µg/mL (≈ 3.73 mM)
solubility at 4 h ([3]; FaSSIF (pH 6.5), 4 hr, final pH 6.6): 1100 µg/mL (≈ 3.73 mM)
solubility at 24 h ([3]; FaSSIF (pH 6.5), 24 hr, final pH 6.6): 1200 µg/mL (≈ 4.06 mM)
solubility at 1 h ([3]; FeSSIF (pH 5.0), 1 hr, final pH 5.6): 1100 µg/mL (≈ 3.73 mM)
solubility at 4 h ([3]; FeSSIF (pH 5.0), 4 hr, final pH 5.6): 1200 µg/mL (≈ 4.06 mM)
solubility at 24 h ([3]; FeSSIF (pH 5.0), 24 hr, final pH 5.6): 1200 µg/mL (≈ 4.06 mM)
solubility at 1 h ([3]; water, H2O (pH 6.5), 1 hr, final pH 8.5): 1100 µg/mL (≈ 3.73 mM)
solubility at 4 h ([3]; water, H2O (pH 6.5), 4 hr, final pH 8.4): 1100 µg/mL (≈ 3.73 mM)
solubility at 24 h ([3]; water, H2O (pH 6.5), 24 hr, final pH 8.7): 1100 µg/mL (≈ 3.73 mM)
API (RRT 1.00) % Area ([4]; pH 2.0 (50 mM HCl—KCl), 24 hrs): 84.93 % Area
Imp. 1 (RRT 0.66) % Area ([4]; pH 2.0 (50 mM HCl—KCl), 24 hrs): 0.15 % Area
Imp. 1 (RRT 0.70) % Area ([4]; pH 2.0 (50 mM HCl—KCl), 24 hrs): 0.67 % Area
Imp. 1 (RRT 0.76) % Area ([4]; pH 2.0 (50 mM HCl—KCl), 24 hrs): 14.25 % Area
Imp. 1 (RRT 1.05) % Area ([4]; pH 2.0 (50 mM HCl—KCl), 24 hrs): — (—: <0.05 area %)
Purity vs. Initial (%) ([4]; pH 2.0 (50 mM HCl—KCl), 24 hrs): 85.1%
degradation in solution ([4]; pH 2.0 and pH 4.0 buffers, 24 hrs): Degradation was observed
API (RRT 1.00) % Area ([4]; pH 4.0 (50 mM Citrate), 24 hrs): 98.42 % Area
Imp. 1 (RRT 0.66) % Area ([4]; pH 4.0 (50 mM Citrate), 24 hrs): 0.15 % Area
Imp. 1 (RRT 0.70) % Area ([4]; pH 4.0 (50 mM Citrate), 24 hrs): — (—: <0.05 area %)
Imp. 1 (RRT 0.76) % Area ([4]; pH 4.0 (50 mM Citrate), 24 hrs): 0.38 % Area
Imp. 1 (RRT 1.05) % Area ([4]; pH 4.0 (50 mM Citrate), 24 hrs): 0.06 % Area
Purity vs. Initial (%) ([4]; pH 4.0 (50 mM Citrate), 24 hrs): 98.5%
API (RRT 1.00) % Area ([4]; pH 6.0 (50 mM Citrate), 24 hrs): 99.75 % Area
Imp. 1 (RRT 0.66) % Area ([4]; pH 6.0 (50 mM Citrate), 24 hrs): 0.13 % Area
Imp. 1 (RRT 0.70) % Area ([4]; pH 6.0 (50 mM Citrate), 24 hrs): — (—: <0.05 area %)
Imp. 1 (RRT 0.76) % Area ([4]; pH 6.0 (50 mM Citrate), 24 hrs): 0.06 % Area
Imp. 1 (RRT 1.05) % Area ([4]; pH 6.0 (50 mM Citrate), 24 hrs): 0.06 % Area
Purity vs. Initial (%) ([4]; pH 6.0 (50 mM Citrate), 24 hrs): 99.8%
API (RRT 1.00) % Area [4, 7]: 99.78 % Area
Imp. 1 (RRT 0.66) % Area [4, 7]: 0.15 % Area
Imp. 1 (RRT 0.70) % Area [4, 7]: — (—: <0.05 area %)
Imp. 1 (RRT 0.76) % Area [4, 7]: — (—: <0.05 area %)
Imp. 1 (RRT 1.05) % Area [4, 7]: 0.07 % Area
Purity vs. Initial (%) [4, 7]: 99.9%
API (RRT 1.00) % Area [4, 8]: 99.81 % Area
Imp. 1 (RRT 0.66) % Area [4, 8]: 0.13 % Area
Imp. 1 (RRT 0.70) % Area [4, 8]: — (—: <0.05 area %)
Imp. 1 (RRT 0.76) % Area [4, 8]: — (—: <0.05 area %)
Imp. 1 (RRT 1.05) % Area [4, 8]: 0.06 % Area
Purity vs. Initial (%) [4, 8]: 100.0%
API (RRT 1.00) % Area [4, 9]: 99.83 % Area
Imp. 1 (RRT 0.66) % Area [4, 9]: 0.13 % Area
Imp. 1 (RRT 0.70) % Area [4, 9]: — (—: <0.05 area %)
Imp. 1 (RRT 0.76) % Area [4, 9]: — (—: <0.05 area %)
Imp. 1 (RRT 1.05) % Area [4, 9]: 0.04 % Area
Purity vs. Initial (%) [4, 9]: 100.0%
solubility at 24 h ([5]; 50 mM HCl-KCl buffer, pH 2.0 (50 mM HCl—KCl), final pH 2.3): 1800 µg/mL (≈ 6.1 mM)
solubility at 24 h ([5]; 50 mM citrate buffer, pH 4.0 (50 mM Citrate), final pH 4.1): 840 µg/mL (≈ 2.84 mM)
solubility at 24 h ([5]; 50 mM citrate buffer, pH 6.0 (50 mM Citrate), final pH 5.9): 750 µg/mL (≈ 2.54 mM)
solubility at 24 h ([5]; 50 mM phosphate buffer, pH 7.0 (50 mM Phosphate), final pH 6.9): 900 µg/mL (≈ 3.05 mM)
solubility at 24 h ([5]; 50 mM phosphate buffer, pH 8.0 (50 mM Phosphate), final pH 7.8): 810 µg/mL (≈ 2.74 mM)
form change after equilibrium solubility evaluation ([5]; pH buffers): no form change
Final Form ([5]; pH 2.0 (50 mM HCl—KCl)): Form A
Final Form ([5]; pH 4.0 (50 mM Citrate)): Form A
Final Form ([5]; pH 6.0 (50 mM Citrate)): Form A
Final Form ([5]; pH 7.0 (50 mM Phosphate)): Form A
Final Form ([5]; pH 8.0 (50 mM Phosphate)): Form A
SMILES: CC(C)(C(=O)N1CCOc2c(C#N)cncc2C1)C(F)F [Form A, 4-(3,3-difluoro-2,2-dimethyl-propanoyl)-3,5-dihydro-2H-pyrido[3,4-f][1,4]oxazepine-9-carbonitrile]
